# How the values were obtained:
# human TGR5 (h-TGR5) = biological target: T1, human TGR5 (h-TGR5) (Homo sapiens, UniProt Q8TDU6); experiment: TGR5/CRE-Luciferiase Assay (HEK 293 hTGR5/CRE-Luc cells); type: cell-based; details: h-TGR5 CRE-Luc EC50, Table 1; read-out: CRE-Luc (EC50)
# T1 construct: expressed in transfected cells
# T1 sequence (Q8TDU6 1-330): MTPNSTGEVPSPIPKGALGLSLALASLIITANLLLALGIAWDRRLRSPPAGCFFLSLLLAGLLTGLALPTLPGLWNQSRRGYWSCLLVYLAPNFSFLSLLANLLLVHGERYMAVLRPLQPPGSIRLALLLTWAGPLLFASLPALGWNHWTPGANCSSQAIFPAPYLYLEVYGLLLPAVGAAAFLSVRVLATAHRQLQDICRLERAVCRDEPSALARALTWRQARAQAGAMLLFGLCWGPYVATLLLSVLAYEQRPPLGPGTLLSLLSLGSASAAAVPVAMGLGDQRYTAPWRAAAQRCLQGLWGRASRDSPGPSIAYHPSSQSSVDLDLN
# In short: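 HEK293 cells stably carrying hTGR5 and a CRE-luciferase reporter were exposed to serially diluted compounds (diluted in DMEM with 5% DMSO) for 6 h. Cells were then lysed in luciferase buffer, luminescence was read, and EC50 values were derived from dose-response curves.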
# h-TGR5 = biological target: T2, h-TGR5 (Homo sapiens, UniProt Q8TDU6); experiment: TGR5 cAMP Assay using Cisbio cAMP Dynamic2 htrf kit (hTGR5CRE-luc HEK 293 cells); type: cell-based; details: h-TGR5 cAMP EC50, Table 1; read-out: cAMP (EC50)
# T2 construct: expressed in transfected cells
# T2 sequence (Q8TDU6 1-330): T1 sequence (Q8TDU6 1-330)
# In short: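 […], 4000 hTGR5CRE-luc HEK 293 cells per well, with 0.5 mM IBMX and d2-cAMP, were incubated 30 min at room temperature with compounds in 8-point half-log series, in quadruplicate.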
Compound,EC50 (human TGR5 (h-TGR5)) [µM],EC50 (h-TGR5) [µM]
COc1cc(-n2c(C(C)(C)c3ccc(F)c(C#N)c3)cnc2SCc2ccc(S(=O)(=O)NC(=O)NN3CCCC3)cc2Cl)ccc1F [3-chloro-4-[({5-[1-(3-cyano-4-fluorophenyl)-1-methylethyl]-1-[4-fluoro-3-(methyloxy)phenyl]-1H-imidazol-2-yl}thio)methyl]-N-[(pyrrolidin-1-ylamino)carbonyl]benzenesulfonamide],0.1 to 1,0.1 to 1
CC(C)(c1ccc(C#N)c(Cl)c1)c1cnc(SCc2ccc(F)cc2Cl)n1-c1ccc(F)cc1 [2-chloro-4-{1-[2-{[(2-chloro-4-fluorophenyl)methyl]thio}-1-(4-fluorophenyl)-1H-imidazol-5-yl]-1-methylethyl}benzonitrile],0.1 to 1,0.1 to 1
"COc1ccc(C(C)(C)c2cnc(SCc3ccc(C(N)=O)cc3F)n2-c2ccc(F)cc2)cc1OC [4-({[5-{1-[3,4-bis(methyloxy)phenyl]-1-methylethyl}-1-(4-fluorophenyl)-1H-imidazol-2-yl]thio}methyl)-3-fluorobenzamide]",0.1 to 1,< 0.1
CC(C)(c1ccc(F)c(C#N)c1)c1cnc(SCc2ccc(S(=O)(=O)NC(=O)NN3CCCC3)cc2Cl)n1-c1ccc(F)cc1 [3-chloro-4-[({5-[1-(3-cyano-4-fluorophenyl)-1-methylethyl]-1-(4-fluorophenyl)-1H-imidazol-2-yl}thio)methyl]-N-[(pyrrolidin-1-ylamino)carbonyl]benzenesulfonamide],0.1 to 1,0.1 to 1
"COc1cc(C(C)(C)c2cnc(SCc3c(F)cc(C#CCNC(=N)N)cc3F)n2-c2ccc(F)cc2)ccc1Cl [1-{3-[4-({[5-{1-[4-chloro-3-(methyloxy)phenyl]-1-methylethyl}-1-(4-fluorophenyl)-1H-imidazol-2-yl]thio}methyl)-3,5-difluorophenyl]prop-2-yn-1-yl}guanidine]",< 0.1,< 0.1
"CC(C)(c1ccc(Cl)c(Cl)c1)c1c(Cl)nc(SCc2ccc(-c3nnn[nH]3)c(Cl)c2)n1-c1ccc(F)cc1 [5-{2-chloro-4-[({4-chloro-5-[1-(3,4-dichlorophenyl)-1-methylethyl]-1-(4-fluorophenyl)-1H-imidazol-2-yl}thio)methyl]phenyl}-1H-tetrazole]",0.1 to 1,1 to 10
"CC(C)(c1ccc(F)c(F)c1)c1cnc(SCc2ccc(S(=O)(=O)NC(=O)NN3CCCC3)cc2Cl)n1-c1ccc(F)c(Cl)c1 [3-chloro-4-[({1-(3-chloro-4-fluorophenyl)-5-[1-(3,4-difluorophenyl)-1-methylethyl]-1H-imidazol-2-yl}thio)methyl]-N-[(pyrrolidin-1-ylamino)carbonyl]benzenesulfonamide]",0.1 to 1,1 to 10
CC(C)(c1ccc(F)c(Cl)c1)c1cnc(SCc2c(F)cccc2Cl)n1-c1ccc(F)cc1 [5-[1-(3-chloro-4-fluorophenyl)-1-methylethyl]-2-{[(2-chloro-6-fluorophenyl)methyl]thio}-1-(4-fluorophenyl)-1H-imidazole],< 0.1,0.1 to 1
"CC(C)(c1ccc(Cl)c(Cl)c1)c1cnc(SCc2c(F)cc(C(=O)NCS(=O)(=O)O)cc2F)n1-c1ccc(F)c(Cl)c1 [[({4-[({1-(3-chloro-4-fluorophenyl)-5-[1-(3,4-dichlorophenyl)-1-methylethyl]-1H-imidazol-2-yl}thio)methyl]-3,5-difluorophenyl}carbonyl)amino]methanesulfonic acid]",< 0.1,< 0.1
COc1cc(C(C)(C)c2cnc(SCc3cc(S(N)(=O)=O)c(Cl)cc3F)n2-c2ccc(F)cc2)ccc1Cl [2-chloro-5-({[5-{1-[4-chloro-3-(methyloxy)phenyl]-1-methylethyl}-1-(4-fluorophenyl)-1H-imidazol-2-yl]thio}methyl)-4-fluorobenzenesulfonamide],< 0.1,< 0.1
"CC(C)(c1ccc(Cl)c(Cl)c1)c1cnc(SCc2c(F)cccc2Cl)n1-c1ccc(F)cc1F [2-{[(2-chloro-6-fluorophenyl)methyl]thio}-5-[1-(3,4-dichlorophenyl)-1-methylethyl]-1-(2,4-difluorophenyl)-1H-imidazole]",0.1 to 1,0.1 to 1
CC(C)(c1ccc(S(N)(=O)=O)c(Cl)c1)c1cnc(SCc2ccc(S(=O)(=O)NC(=O)NN3CCOCC3)cc2Cl)n1-c1ccc(F)c(Cl)c1 [4-({[5-{1-[4-(aminosulfonyl)-3-chlorophenyl]-1-methylethyl}-1-(3-chloro-4-fluorophenyl)-1H-imidazol-2-yl]thio}methyl)-3-chloro-N-[(morpholin-4-ylamino)carbonyl]benzenesulfonamide],0.1 to 1,0.1 to 1
COc1cc(C(C)(C)c2cnc(SCc3ccc(S(=O)(=O)NC(=O)NC(C)C)cc3Cl)n2-c2ccc(F)cc2)ccc1Cl [3-chloro-4-({[5-{1-[4-chloro-3-(methyloxy)phenyl]-1-methylethyl}-1-(4-fluorophenyl)-1H-imidazol-2-yl]thio}methyl)-N-{[(1-methylethyl)amino]carbonyl} benzenesulfonamide],0.1 to 1,< 0.1
"COc1ccc(C(C)(C)c2cnc(SCc3c(F)cc(C(=O)O)cc3F)n2-c2ccc(F)cc2)cc1Cl [4-({[5-{1-[3-chloro-4-(methyloxy)phenyl]-1-methylethyl}-1-(4-fluorophenyl)-1H-imidazol-2-yl]thio}methyl)-3,5-difluorobenzoic acid]",< 0.1,< 0.1

# Now from value to molecule:
EC50 (human TGR5 (h-TGR5)) [µM],EC50 (h-TGR5) [µM],Compound
0.1 to 1,0.1 to 1,COc1cc(-n2c(C(C)(C)c3ccc(S(N)(=O)=O)c(Cl)c3)cnc2SCc2ccc(S(=O)(=O)NC(=O)NN3CCCCC3)cc2Cl)ccc1F [4-{[(5-{1-[4-(aminosulfonyl)-3-chlorophenyl]-1-methylethyl}-1-[4-fluoro-3-(methyloxy)phenyl]-1H-imidazol-2-yl)thio]methyl}-3-chloro-N-[(piperidin-1-ylamino)carbonyl]benzenesulfonamide]
< 0.1,0.1 to 1,"CC(C)(c1ccc(Cl)c(Cl)c1)c1cnc(S(=O)(=O)NCc2ccc(F)cc2Cl)n1-c1ccc(F)cc1 [N-[(2-chloro-4-fluorophenyl)methyl]-5-[1-(3,4-dichlorophenyl)-1-methylethyl]-1-(4-fluorophenyl)-1H-imidazole-2-sulfonamide]"
< 0.1,< 0.1,COc1cc(C(C)(C)c2cnc(SCc3c(F)cc(C(=O)Nc4nnn[nH]4)cc3Cl)n2-c2ccc(F)cc2)ccc1Cl [3-chloro-4-({[5-{1-[4-chloro-3-(methyloxy)phenyl]-1-methylethyl}-1-(4-fluorophenyl)-1H-imidazol-2-yl]thio}methyl)-5-fluoro-N-1H-tetrazol-5-ylbenzamide]
0.1 to 1,0.1 to 1,COc1cc(-n2c(C(C)(C)c3ccc(S(N)(=O)=O)c(Cl)c3)cnc2SCc2ccc(Cl)c(-c3nnn[nH]3)c2)ccc1F [2-chloro-4-(1-{2-({[4-chloro-3-(1H-tetrazol-5-yl)phenyl]methyl}thio)-1-[4-fluoro-3-(methyloxy)phenyl]-1H-imidazol-5-yl}-1-methylethyl)benzenesulfonamide]
1 to 10,1 to 10,COc1cc(C(C)(C)c2cnc(SCc3c(F)cc(C(=O)O)cc3Cl)n2-c2cccnc2)ccc1Cl [3-chloro-4-{[(5-{1-[4-chloro-3-(methyloxy)phenyl]-1-methylethyl}-1-pyridin-3-yl-1H-imidazol-2-yl)thio]methyl}-5-fluorobenzoic acid]
0.1 to 1,0.1 to 1,"O=C(O)c1cc(F)c(CSc2ncc(C3(c4ccc(Cl)c(Cl)c4)CC3)n2-c2ccc(F)cc2)c(F)c1 [4-[({5-[1-(3,4-dichlorophenyl)cyclopropyl]-1-(4-fluorophenyl)-1H-imidazol-2-yl}thio)methyl]-3,5-difluorobenzoic acid]"
< 0.1,< 0.1,COc1cc(C(C)(C)c2cnc(SCc3c(F)cc(C(=O)NC(CCCNC(=N)N)C(=O)O)cc3Cl)n2-c2ccc(F)cc2)ccc1F [N-2-{[3-chloro-5-fluoro-4-({[5-{1-[4-fluoro-3-(methyloxy)phenyl]-1-methylethyl}-1-(4-fluorophenyl)-1H-imidazol-2-yl]thio}methyl)phenyl]carbonyl}-D-arginine]
0.1 to 1,0.1 to 1,"COc1cc(C(C)(C)c2cnc(SCc3c(F)cc(S(=O)(=O)NC(=O)NN4CCOCC4)cc3F)n2-c2ccc(F)cn2)ccc1Cl [4-({[5-{1-[4-chloro-3-(methyloxy)phenyl]-1-methylethyl}-1-(5-fluoropyridin-2-yl)-1H-imidazol-2-yl]thio}methyl)-3,5-difluoro-N-[(morpholin-4-ylamino)carbonyl]benzenesulfonamide]"
< 0.1,0.1 to 1,"CC(C)(c1ccc(Cl)c(Cl)c1)c1cnc(SCc2c(F)cc(C(=O)O)cc2F)n1-c1ccc(F)c(C(F)F)c1 [4-[({5-[1-(3,4-dichlorophenyl)-1-methylethyl]-1-[3-(difluoromethyl)-4-fluorophenyl]-1H-imidazol-2-yl}thio)methyl]-3,5-difluorobenzoic acid]"

# From US8785488B2 (Exelixis Patent Company LLC, priority 2009, dated 2014)
